Values quoted from earlier work as cited in US8778397B2, “Stabilized tolterodine tartrate formulations” (Mylan Inc., priority 2007, dated 2014).

Cc1ccc(O)c([C@H](CCN(C(C)C)C(C)C)c2ccccc2)c1 [Tolterodine]
solubility in water: 12 g/1000 mL
